In PubChem BioAssay (NCI):
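Compound exposure: 48 hours, 5 concentrations, 96-well plates. TGI: concentration producing complete growth inhibition.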

Columns and labels:
Assay in all cases: NCI tumour cell line growth inhibition, 48 h
SK-OV-3 ovarian = tested on: SK-OV-3 ovarian
MOLT-4 leukemia = tested on: MOLT-4 leukemia
EKVX NSCLC = tested on: EKVX NSCLC
NCI/ADR-RES ovarian = tested on: NCI/ADR-RES ovarian
TK-10 renal = tested on: TK-10 renal
MDA-MB-435 = tested on: MDA-MB-435
NCI-H23 lung = tested on: NCI-H23 lung
U251 CNS = tested on: U251 CNS
K-562 leukemia = tested on: K-562 leukemia
NCI-H522 lung = tested on: NCI-H522 lung

SMILES: OC1(c2ccc(Cl)cc2)c2c(ccc3c2OCO3)C2=NCCN21 (stereo unspecified)
- TGI (SK-OV-3 ovarian): > 100 µM
- TGI (MOLT-4 leukemia): > 100 µM
- TGI (EKVX NSCLC): > 100 µM
- TGI (NCI/ADR-RES ovarian): > 100 µM
- TGI (TK-10 renal): 45.7 µM
- TGI (MDA-MB-435): > 100 µM
- TGI (NCI-H23 lung): > 100 µM
- TGI (U251 CNS): > 100 µM
- TGI (K-562 leukemia): 70.6 µM

SMILES: COc1cc(/C=C2/SC(c3ccccc3)N(c3cccc(Cl)c3)C2=O)cc(OC)c1OC (stereo unspecified)
- TGI (SK-OV-3 ovarian): > 100 µM
- TGI (MOLT-4 leukemia): > 100 µM
- TGI (EKVX NSCLC): > 100 µM
- TGI (NCI/ADR-RES ovarian): 73.9 µM
- TGI (TK-10 renal): > 100 µM
- TGI (MDA-MB-435): 93.4 µM
- TGI (NCI-H522 lung): 26.2 µM
- TGI (NCI-H23 lung): > 100 µM
- TGI (U251 CNS): 86.8 µM
- TGI (K-562 leukemia): > 100 µM

SMILES: O=C1CS(=O)(=O)C(c2cccc(Oc3ccccc3)c2)N1c1cccc(Cl)c1 (stereo unspecified)
- TGI (SK-OV-3 ovarian): > 100 µM
- TGI (MOLT-4 leukemia): 58.1 µM
- TGI (EKVX NSCLC): 61.9 µM
- TGI (NCI/ADR-RES ovarian): > 100 µM
- TGI (TK-10 renal): 63.1 µM
- TGI (MDA-MB-435): 65.8 µM
- TGI (NCI-H522 lung): 45.2 µM
- TGI (NCI-H23 lung): > 100 µM
- TGI (U251 CNS): 47.2 µM
- TGI (K-562 leukemia): 52.1 µM

SMILES: O=c1cc(-c2ccc(O)cc2)n(C2CC2)c2ccccc12
- TGI (SK-OV-3 ovarian): 42.6 µM
- TGI (MOLT-4 leukemia): > 100 µM
- TGI (NCI/ADR-RES ovarian): 38.8 µM
- TGI (MDA-MB-435): 17.5 µM
- TGI (NCI-H522 lung): 9.69 µM
- TGI (NCI-H23 lung): 26.6 µM
- TGI (U251 CNS): 21.6 µM
- TGI (K-562 leukemia): > 100 µM

SMILES: CCCCCCCCCCCCCCCc1ccc(OCC(O)CO)cc1 (stereo unspecified)
- TGI (SK-OV-3 ovarian): > 100 µM
- TGI (MOLT-4 leukemia): > 100 µM
- TGI (EKVX NSCLC): 78.5 µM
- TGI (TK-10 renal): > 100 µM
- TGI (NCI-H522 lung): 35.4 µM
- TGI (NCI-H23 lung): 35.2 µM
- TGI (U251 CNS): 55.9 µM
- TGI (K-562 leukemia): > 100 µM

SMILES: Nc1cc2c(nnn2C2OC(COCc3ccccc3)C(OCc3ccccc3)C2OCc2ccccc2)c(=O)[nH]1 (stereo unspecified)
- TGI (SK-OV-3 ovarian): > 100 µM
- TGI (MOLT-4 leukemia): 38.9 µM
- TGI (EKVX NSCLC): 46.1 µM
- TGI (NCI/ADR-RES ovarian): > 100 µM
- TGI (TK-10 renal): 52.1 µM
- TGI (MDA-MB-435): 40.4 µM
- TGI (NCI-H522 lung): > 100 µM
- TGI (NCI-H23 lung): > 100 µM
- TGI (U251 CNS): > 100 µM
- TGI (K-562 leukemia): 84.6 µM

SMILES: N#Cc1c2c(c(Nc3cccc(C(F)(F)F)c3)n3c1nc1ccccc13)CCC2
- TGI (SK-OV-3 ovarian): > 100 µM
- TGI (MOLT-4 leukemia): > 100 µM
- TGI (EKVX NSCLC): > 100 µM
- TGI (NCI/ADR-RES ovarian): > 100 µM
- TGI (TK-10 renal): > 100 µM
- TGI (MDA-MB-435): > 100 µM
- TGI (NCI-H522 lung): > 100 µM
- TGI (NCI-H23 lung): > 100 µM
- TGI (U251 CNS): > 100 µM

SMILES: CS(=O)(=O)OC1CN2CCC1CC2 (stereo unspecified)
- TGI (SK-OV-3 ovarian): > 100 µM
- TGI (MOLT-4 leukemia): > 100 µM
- TGI (EKVX NSCLC): > 100 µM
- TGI (NCI/ADR-RES ovarian): > 100 µM
- TGI (TK-10 renal): > 100 µM
- TGI (MDA-MB-435): > 100 µM
- TGI (NCI-H522 lung): > 100 µM
- TGI (NCI-H23 lung): > 100 µM
- TGI (U251 CNS): > 100 µM
- TGI (K-562 leukemia): > 100 µM

SMILES: Cc1ccc(NP(=O)(Oc2ccccc2)N(CCCl)CCCl)cc1 (stereo unspecified)
- TGI (SK-OV-3 ovarian): > 100 µM
- TGI (MOLT-4 leukemia): > 100 µM
- TGI (EKVX NSCLC): > 100 µM
- TGI (TK-10 renal): > 100 µM
- TGI (NCI-H522 lung): > 100 µM
- TGI (NCI-H23 lung): > 100 µM
- TGI (U251 CNS): > 100 µM
- TGI (K-562 leukemia): > 100 µM

SMILES: Cc1cc2c(cc1Cl)SC(c1ccccc1)C(=O)NS2(=O)=O (stereo unspecified)
- TGI (SK-OV-3 ovarian): > 100 µM
- TGI (MOLT-4 leukemia): 60.7 µM
- TGI (EKVX NSCLC): > 100 µM
- TGI (NCI/ADR-RES ovarian): 91.9 µM
- TGI (TK-10 renal): > 100 µM
- TGI (MDA-MB-435): > 100 µM
- TGI (NCI-H522 lung): 59.7 µM
- TGI (NCI-H23 lung): 56.2 µM
- TGI (U251 CNS): 60.5 µM
- TGI (K-562 leukemia): > 100 µM

SMILES: N#CC(c1ccnc(Cl)n1)c1nc2ccccc2s1 (stereo unspecified)
- TGI (SK-OV-3 ovarian): 16 µM
- TGI (MOLT-4 leukemia): > 39.3 µM
- TGI (EKVX NSCLC): > 74.6 µM
- TGI (NCI/ADR-RES ovarian): 19.7 µM
- TGI (TK-10 renal): > 60.7 µM
- TGI (MDA-MB-435): > 100 µM
- TGI (NCI-H522 lung): 11.1 µM
- TGI (NCI-H23 lung): 15.6 µM
- TGI (U251 CNS): 13.3 µM
- TGI (K-562 leukemia): 76.2 µM

SMILES: CC(=O)c1c(SCCN2CCCC2)n(-c2ccccc2)c(=S)n(-c2ccccc2)c1=O
- TGI (SK-OV-3 ovarian): > 100 µM
- TGI (MOLT-4 leukemia): > 23.4 µM
- TGI (EKVX NSCLC): 37.3 µM
- TGI (NCI/ADR-RES ovarian): > 85.2 µM
- TGI (TK-10 renal): 8.5 µM
- TGI (MDA-MB-435): 13.2 µM
- TGI (NCI-H522 lung): 8.31 µM
- TGI (NCI-H23 lung): 37.4 µM
- TGI (U251 CNS): 47.9 µM
- TGI (K-562 leukemia): > 26.7 µM

SMILES: CCN(CC)CCCC(C)Nc1ccnc2cc3ccccc3cc12 (stereo unspecified)
- TGI (SK-OV-3 ovarian): 50 µM
- TGI (MOLT-4 leukemia): > 100 µM
- TGI (EKVX NSCLC): > 100 µM
- TGI (NCI/ADR-RES ovarian): > 100 µM
- TGI (TK-10 renal): 78.6 µM
- TGI (MDA-MB-435): 24.2 µM
- TGI (NCI-H522 lung): 29 µM
- TGI (NCI-H23 lung): 96.7 µM
- TGI (U251 CNS): 42.1 µM
- TGI (K-562 leukemia): > 100 µM

SMILES: Cc1cccc2cc3c(ccc4ccccc43)c[n+]12
- TGI (MOLT-4 leukemia): > 100 µM
- TGI (EKVX NSCLC): > 100 µM
- TGI (NCI/ADR-RES ovarian): > 100 µM
- TGI (TK-10 renal): > 100 µM
- TGI (MDA-MB-435): > 100 µM
- TGI (NCI-H522 lung): 38.2 µM
- TGI (NCI-H23 lung): 58 µM
- TGI (U251 CNS): 40.6 µM
- TGI (K-562 leukemia): > 100 µM

SMILES: Nc1ccc(-c2cssc2=S)cc1
- TGI (SK-OV-3 ovarian): > 100 µM
- TGI (MOLT-4 leukemia): > 100 µM
- TGI (EKVX NSCLC): > 100 µM
- TGI (NCI/ADR-RES ovarian): > 100 µM
- TGI (TK-10 renal): > 100 µM
- TGI (MDA-MB-435): > 100 µM
- TGI (NCI-H522 lung): > 100 µM
- TGI (U251 CNS): > 100 µM
- TGI (K-562 leukemia): > 100 µM

SMILES: Cn1c(-c2cccs2)cc(-c2ccccc2)c1-c1cccs1
- TGI (SK-OV-3 ovarian): > 100 µM
- TGI (MOLT-4 leukemia): > 100 µM
- TGI (EKVX NSCLC): > 100 µM
- TGI (NCI/ADR-RES ovarian): > 100 µM
- TGI (TK-10 renal): > 100 µM
- TGI (MDA-MB-435): > 100 µM
- TGI (NCI-H522 lung): > 100 µM
- TGI (NCI-H23 lung): > 100 µM
- TGI (U251 CNS): > 100 µM
- TGI (K-562 leukemia): > 100 µM

SMILES: CC(=O)Nc1ccc(N=C2C(c3ccccc3)=C(SC3=C(c4ccccc4)C(=Nc4ccc(NC(C)=O)cc4)c4ccccc43)c3ccccc32)cc1
- TGI (SK-OV-3 ovarian): > 100 µM
- TGI (MOLT-4 leukemia): 63 µM
- TGI (EKVX NSCLC): > 100 µM
- TGI (NCI/ADR-RES ovarian): 72.9 µM
- TGI (TK-10 renal): > 100 µM
- TGI (MDA-MB-435): > 100 µM
- TGI (NCI-H522 lung): 97.7 µM
- TGI (NCI-H23 lung): 99.8 µM
- TGI (U251 CNS): > 100 µM
- TGI (K-562 leukemia): > 100 µM

SMILES: CN(C)c1nc(N(C)C)nc(N(C)CN(C)c2ccc(Cl)cc2)n1
- TGI (SK-OV-3 ovarian): > 100 µM
- TGI (MOLT-4 leukemia): > 100 µM
- TGI (TK-10 renal): > 100 µM
- TGI (NCI-H522 lung): > 100 µM
- TGI (NCI-H23 lung): > 100 µM
- TGI (U251 CNS): > 100 µM
- TGI (K-562 leukemia): > 100 µM

SMILES: CO/C=C(/C(=O)OC)c1ccccc1[C@@H]1CC1c1cccc(F)c1 (stereo partly specified)
- TGI (SK-OV-3 ovarian): 79.7 µM
- TGI (MOLT-4 leukemia): > 100 µM
- TGI (EKVX NSCLC): 88.1 µM
- TGI (NCI/ADR-RES ovarian): 91.8 µM
- TGI (TK-10 renal): > 100 µM
- TGI (MDA-MB-435): 44 µM
- TGI (NCI-H522 lung): 35.3 µM
- TGI (NCI-H23 lung): > 100 µM
- TGI (U251 CNS): > 100 µM
- TGI (K-562 leukemia): > 100 µM

SMILES: O=C(N/N=C(/COc1ccc(Cl)cc1)N=Cc1cccnc1)c1ccncc1
- TGI (SK-OV-3 ovarian): > 100 µM
- TGI (MOLT-4 leukemia): > 100 µM
- TGI (EKVX NSCLC): > 100 µM
- TGI (NCI/ADR-RES ovarian): > 100 µM
- TGI (TK-10 renal): > 100 µM
- TGI (MDA-MB-435): > 100 µM
- TGI (NCI-H522 lung): 66.7 µM
- TGI (NCI-H23 lung): > 100 µM
- TGI (U251 CNS): > 100 µM
- TGI (K-562 leukemia): > 100 µM

SMILES: CCN1C=C/C(=C\C=C/c2cc[n+](CC)c3ccccc23)c2ccccc21
- TGI (SK-OV-3 ovarian): 15.1 µM
- TGI (MOLT-4 leukemia): 19.7 µM
- TGI (EKVX NSCLC): 47 µM
- TGI (NCI/ADR-RES ovarian): > 100 µM
- TGI (TK-10 renal): 28.1 µM
- TGI (MDA-MB-435): 14.2 µM
- TGI (NCI-H522 lung): 23.1 µM
- TGI (NCI-H23 lung): 11.7 µM
- TGI (U251 CNS): 13 µM
